One data set deals with MS; CNS lymphomas. Particulars: cited from earlier work.
For data set [1] the following is noted: cited from earlier work; for crossing of the blood brain barrier (BBB) into the CNS: in vivo.
Data set [2] in a line: Safety of high dose IV methotrexate with leucovorin rescue in MS patients. Format: in vivo. As to the method: (§1) Methotrexate treatments were given every 2 months for up to 6 treatments. Methotrexate was administered by IV at a dosage of 1 g/m^2 for the first three treatments. […] The patients were then switched to doses of 2 g/m^2 of methotrexate for three subsequent treatments. Methotrexate was given after hydration and alkalization, with urine pH 7.0 or greater. The infusion was followed by continued hydration for several hours.
(§2) Each methotrexate treatment was followed by intravenous leucovorin rescue with 50 mg leucovorin eight hours after the start of the methotrexate infusion. Oral leucovorin (25 mg) was administered every 6 hours for a total of 12 doses after intravenous leucovorin rescue, and the serum methotrexate level measured. If necessary oral leucovorin was continued until the serum level reached 0.05 μM.

The next data set relates to relapsing progressive MS. As to the kind of experiment: MSFC clinical outcome (9-HPT, 25-ft walk, PASAT) in patients treated with bimonthly high dose IV methotrexate. In kind it is in vivo. Also on record: 9-HPT change / 25-ft walk change: unit not given here. Here is the method: Ten patients of relapsing progressive MS were treated with bimonthly high dose intravenous methotrexate with leucovorin rescue, combined with interim treatment with low dose immunomodulatory agents.
as §1, §2
At the time of study entry, all patients were being treated, with interferon (AVONEX® or BETA-SERON®), glatiramer acetate (COPAXONE®), or oral methotrexate. These medications were continued between treatments.
The clinical outcome was determined by MSFC scores at baseline and at two months follow up visits after each treatment. The MSFC is a clinical outcome measure, which measures three clinical functions involving hand dexterity, walking, and cognition. Two tailed paired t-test was used to compare the results of MSFC.

Data set [3] is described as follows: Methotrexate in cerebrospinal fluid (CSF) after infusion. Format: in vivo. As to conditions: five CSF samples, several patients and time points after infusion of 2 g/m^2. Here is the method:
Five samples of cerebrospinal fluid (CSF) were analyzed for methotrexate, representing several patients and several time points after methotrexate infusion of 2 g/m^2.

Where [4] appears, read: after one year of treatment, ten patients.
The mark [5] stands for this setting: all patients together, two tailed paired t-test.
[6] abbreviates: all patients together, two tailed paired t-test, p<0.05.
[7] abbreviates: individual patient, change from baseline after one year, IV 1 g/m^2 x3 then 2 g/m^2 x3, every 2 months, leucovorin rescue, interim agent.

Values joined by “and” are separate entries in the source; they are usually repeats but may differ in a detail not shown here. Equal entries are not always repeated.

With `O=P1(N(CCCl)CCCl)NCCCO1` (centres unmarked) [cyclophosphamide], the “efficacy against the progression of MS” value with MS; CNS lymphomas (in vivo) is given as “some efficacy”. For the same compound, the “crossing of the blood brain barrier (BBB) into the CNS” value (from here on “crossing of the blood brain barrier”) in data set [1] is listed as “do not cross the blood brain barrier”.
`Nc1nc2c(c(=O)[nH]1)N(C=O)C(CNc1ccc(C(=O)N[C@@H](CCC(=O)O)C(=O)O)cc1)CN2` (some centres unmarked) [leucovorin]: the “crossing of the blood brain barrier” value in data set [1] is recorded as “does not penetrate the BBB”.
With `O=C1c2c(O)ccc(O)c2C(=O)c2c(NCCNCCO)ccc(NCCNCCO)c21` [mitoxantrone], in the data set on MS; CNS lymphomas (in vivo), the “efficacy against the progression of MS” value was “some efficacy” and the toxicity limiting use entry is on record as “limited lifetime use due to toxicity”. Besides, the “crossing of the blood brain barrier” value in data set [1] is listed as “do not cross the blood brain barrier”.
With `CN(Cc1cnc2nc(N)nc(N)c2n1)c1ccc(C(=O)N[C@@H](CCC(=O)O)C(=O)O)cc1` [Methotrexate, methotrexate], in the data set on MS; CNS lymphomas (in vivo, iv), the “toxicity of high dose in CNS lymphoma trials” value is recorded as “low toxicity” and the “toxicity of high dose sporadically administered” value was “no significant toxicity”. Further, in the data set with MS; CNS lymphomas (in vivo, po), the “toxicity of low-dose oral treatment in progressive MS” value is given as “minimal toxicity”. Moreover, the “upper extremity strength in MS patients” value in the data set on MS; CNS lymphomas (oral treatments) was “mild improvement”. Also, the tolerability result in data set [2] (IV 1 g/m^2, first three treatments) is reported as “well tolerated”. Further, the renal toxicity result in data set [2] (after one treatment, 2-week follow up creatinine clearance within acceptable limits) is on record as “one patient experienced Grade I renal toxicity”. Moreover, the alopecia entry in data set [2] (ten patients) is “No alopecia was noted”. The hematological toxicity result in data set [2] (ten patients, up to 6 treatments) was “No hematological toxicity was observed”. Moreover, the nausea result in data set [2] (ten patients, easily treated with Zofran) is reported as “Five patients experienced some nausea”. Also, the “serum level relative to crossing the BBB” value in data set [1] (administered orally) is given as “not sufficient to cross the BBB in cytotoxic amounts”. In addition, the “MSFC scores of some of the patients” value in the data set with relapsing progressive MS (after 3 treatments at 1 g/m^2) is on record as “improved significantly”. In addition, in the data set with relapsing progressive MS (setting [4]), the “maximum increase of overall MSFC” value is “+1.28” and the “minimum increase of overall MSFC” value is “+0.08”. Moreover, the “clinical assessment with MSFC scores” value in the data set on relapsing progressive MS (after treatment) was “significant improvement”. Besides, in the data set on relapsing progressive MS (setting [5]), the “improvement in the 25-ft walk test” value was “not significant” and the “improvement in the PASAT test” value is “not significant”. Besides, in the data set with relapsing progressive MS (setting [6]), the “mean nine-hole peg score after treatment” value is recorded as “significant improvement” and the “mean overall MSFC score after treatment” value is reported as “significant improvement”. Moreover, in the data set on relapsing progressive MS (setting [7]), the 9-HPT change result is “+0.45 and +0.86 and −0.31 and +0.20 and +0.83 and +0.30 and −0.10 and +0.80 and +1.07 and +0.70”; the 25-ft walk change entry is “+0.04 and 0.00 and −0.01 (2×) and +0.08 and +0.14 and −0.04 and −0.07 and −0.22 and +0.53”; the MSFC change entry is “+0.38 and +0.31 and +0.25 and +0.18 and +0.13 and +0.09 and +0.08 (2×) and +1.28 and +0.56”; the PASAT change entry was “+0.66 and +0.08 and +1.08 and +0.25 and −0.58 and 0.00 and +0.41 and −0.33 and +2.24 and +0.99”. Moreover, in the data set with relapsing progressive MS (of 10), the “PASAT (cognitive function): patients improved” value turned out to be 6 patients, the “PASAT (cognitive function): patients turned worse” value is on record as 2, the “PASAT (cognitive function): patients unchanged” value is on record as 2 and the “nine-hole peg test (arm function): patients improved” value is listed as 8 patients. Besides, in the data set on relapsing progressive MS (of 10), the “nine-hole peg test (arm function): patients unchanged” value came out at 1, the “nine-hole peg test (arm function): patients with minor worsening” value is 1 patient, the “timed 25-ft walk (leg function): patients unchanged” value was 7 and the “timed 25-ft walk (leg function): patients with improvement” value is listed as 2 patients. In addition, the “timed 25-ft walk (leg function): patients with slight worsening” value in the data set with relapsing progressive MS (of 10) amounted to 1. For the same compound, the “patients improved on MSFC” value with relapsing progressive MS (of 10, after one year, change >+0.1) is on record as “seven”. The “patients unchanged on MSFC” value with relapsing progressive MS (of 10, after one year, change less than 0.1) is on record as “three”. The “deterioration of symptoms of progressive MS” value in the data set with relapsing progressive MS (periodic high dose with leucovorin rescue and interim treatments) is “halted the deterioration of the symptoms in every patient treated”. Further, in data set [3], the “crossing of the BBB (methotrexate in CSF)” value is “cross the BBB in cytotoxic amounts”.

(Values after US6903100B2, “USE OF REGULARLY SCHEDULED HIGH DOSE INTRAVENOUS METHOTREXATE THERAPY, WITH INTERIM ADMINISTRATION OF IMMUNOMODULATORY AGENTS, TO TREAT MULTIPLE SCLEROSIS AND OTHER DISEASES OF THE CENTRAL NERVOUS SYSTEM” (MidAmerica Neuroscience Research Foundation, priority 2001, dated 2005).)
